This passage reports melting point results from patent US6642247B2 (priority 1998, dated 2003).

For `Cl.OC1CCN(c2ccccc2)C12CCN(C1CCC3CCCCC3C1)CC2` (stereo not shown), the melting point is over 250 °C.

`O=C(O)/C=C/C(=O)O.O=C1CCN(c2ccccc2)C12CCN(C1CCCCCCC1)CC2` displayed a melting point of 197 °C.

For the compound `O=C(O)/C=C/C(=O)O.O=C1CCN(c2ccccc2)C12CCN(C1C[C@H]3CCCC[C@H]3C1)CC2` (stereo partly shown), the melting point was 225 °C.

In the case of `O=C(O)/C=C/C(=O)O.O=C1CCN(c2ccccc2)C12CCN(C1CCCCCCCCC1)CC2`, the melting point is 177 °C.

Regarding `O=C(O)/C=C/C(=O)O.O=C1CCN(c2ccccc2)C12CCN(C1CCCCCCCC1)CC2`, the melting point is 185 °C.

`CC(C)[C@H]1CC[C@H](N2CCC3(CC2)C(=O)CCN3c2ccccc2)CC1.Cl` gave a melting point of 237 to 238 °C.

As to `CC(C)[C@H]1CC[C@@H](N2CCC3(CC2)[C@H](O)CCN3c2ccccc2)CC1.Cl`, the melting point is over 250 °C.

In turn, `CC(C)[C@H]1CC[C@@H](N2CCC3(CC2)[C@@H](O)CCN3c2ccccc2)CC1.Cl` registered a melting point of over 250 °C.

For the compound `Cl.O=C1CCN(c2ccccc2)C12CCN(C1Cc3ccccc3C1)CC2`, the melting point was over 250 °C.

Take `CC(C)[C@H]1CC[C@@H](N2CCC3(CC2)ON=C(c2ccccc2)N3c2ccccc2)CC1.Cl`: the melting point came out at 131 °C.

Consider `Cl.Cl.OC1CCN(c2ccccc2)C12CCN(C1CCCCCCCC1)CC2` (racemic), for which the melting point was 170 °C (dec.).

As to `Cl.Cl.OC1CCN(c2ccccc2)C12CCN(C1CCCCCCCCC1)CC2` (racemic), the melting point is 170 °C (dec.).

As for `Cl.Cl.OC1CCN(c2ccccc2)C12CCN(C1CCCCCCC1)CC2` (racemic), the melting point is 173 °C (dec.).

In turn, `CC(C)[C@H]1CC[C@@H](N2CCC3(CC2)C(O)CCN3c2ccccc2)CC1.Cl` (mixture of isomers) displayed a melting point of over 250 °C.

For `O=C(O)/C=C/C(=O)O.O=C1CCN(c2ccccc2)C12CCN([C@@H]1CC[C@H]3CCCc4cccc1c43)CC2` (racemic), the melting point stood at 144 °C.

Compound `Cl.OC1CCN(c2ccccc2)C12CCN(C1Cc3ccccc3C1)CC2` (racemic) had a melting point of over 250 °C.

Compound `COC1CCN(c2ccccc2)C12CCN([C@H]1CC[C@@H](C(C)C)CC1)CC2.Cl` (mixture of isomers) registered a melting point of 214 to 215 °C.

In the case of `Cc1cccc2c1CC(N1CCC3(CC1)C(=O)CCN3c1ccccc1)C2.Cl` (racemic), the melting point is over 250 °C.

`CC(C)[C@H]1CC[C@H](N2CCC3(CC2)C(O)CCN3c2ccccc2)CC1.Cl` (mixture of isomers): the melting point was over 250 °C.

Turning to `Cl.O=C1CCN(c2ccccc2)C12CCN([C@@H]1CC[C@@H]3CCCC[C@@H]3C1)CC2` (racemic), the melting point is 250 to 251 °C (dec.).

On to `COC1CCN(c2ccccc2)C12CCN(C1CCCCCCCCC1)CC2.Cl.Cl` (racemic), for which the melting point is 170 °C (dec.).

For the compound `COC1CCN(c2ccccc2)C12CCN(C1CCCCCCCC1)CC2.O=C(O)/C=C/C(=O)O` (racemic), the melting point is 196 °C (dec.).

As a reminder, the melting point is the temperature of the solid-liquid transition.
